Counter-ions that a name gives are not always drawn.
Experiments:
REV-ERB = experiment: Luciferase-based assay of REV-ERB mediated transcriptional regulation (RevRE/SV40-CLuc reporter in HEK-293 cells); type: cell-based; details: HEK-293 cells transfected with RevRE reporter and REV-ERBα and/or β; read 24 h post-transfection; read-out: REV-ERB antagonism EC50
Source text: Luciferase-Base Assay to Assess the Activity of the Compounds on REV-ERB Mediated Transcriptional Regulation
In order to assess the effect of the compounds of the invention on REV-ERB activity the inventors exploited the ability of REV-ERB to repress gene transcription of a specific DNA cis-element. In fact, the DNA binding domain (DBD) of REV-ERB recognizes specific DNA sequences (called RevREs=Rev-erb Responsive Elements) which contains an AGGTCA motif linked in 5′ to an A/T rich sequence harboring the following consensus: A/T A A/T N T (Harding et al., Mol Cell Biol., 1993; 13:3113).
Therefore, two repetitions of the RevRE consensus AGAATGTAGGTCA (SEQ ID NO: 13) upstream a SV40 promoter driving the expression of a reporter gene were cloned. As reported, the luciferase enzyme from the ostracod Cypridina noctiluca was adopted. […] Cypridina luciferase (CLuc) is secreted from cells by virtue of its natural signal peptide and its luminescence can be measured from the supernatant of transfected cells. Therefore, cell lysis is not necessary. Secreted CLuc is a very stable protein. Because of this property, the activity measured from the supernatant reflects the amount of protein accumulated up to the time of sampling. Multiple samples can therefore be obtained from the same transfected cells, allowing an easy set-up of time-course experiments. In addition, the direct use of the supernatant makes the system easily prone to automation for High Throughput Screening.
In order to normalize the experiment for the transfection efficiency, it was used a plasmid containing a SV40 promoter driving the expression of a secreted form of human alkaline phosphatase (SEAP), which enzymatic activity in the supernatant can be measured with chemiluminescence substrates.
To be able to rule out false-positive, for example due to the interference of the compounds to be tested with the fluorescence and/or chemiluminescence reactions, it was used as control a mutated version of the RevRE (GAGCCCGTAGGTCA) (SEQ ID NO: 14) that is no longer able to bind REV-ERB DBD (Harding et al., Mol Cell Biol., 1993; 13:3113).
The person skilled in the art will appreciate that an agonist will improve the ability of REV-ERB to repress the transcription, reducing the luminescence signal, while an antagonist will produce the opposite effect.
For the assay, HEK-293 cells were transfected with the reporter vectors and a plasmid expressing the REV-ERBα and/or β protein. After 6 h from transfection, the medium was replaced with fresh medium containing different doses of the compounds or vehicle (DMSO). After 24 h post-transfection, the supernatant was analyzed for the secreted luciferase and AP activity according to the manufacture instruction. Data normalized as fold activation versus vehicle (DMSO) were fitted using a four-parameter dose-response curve to calculate the EC50 of the different compounds.
(§1) The different compounds were tested for their ability to inhibit the growth of the tumorigenic breast cancer cells BT-474 and for their antagonistic activity toward REV-ERB transcriptional repression, as described in the biological method section.
For the cell growth inhibition (GI) the growth inhibition 50 (GI50) and the growth inhibition max (GImax) are reported. […] The bottom plateaus of the curve was used to calculate the Growth Inhibition max (GImax), defined as the percentage of the reduction of cells after 48 h upon a saturating dose of the administered compound. Compounds with a GI50<100 μM were also tested for their antagonistic activity toward REV-ERB. […]

[1] = test system: tumorigenic breast cancer cells BT-474; experiment: Growth inhibition assay (CyQUANT Cell Proliferation Assay) in BT-474 cells; type: cell-based; details: Homo sapiens; for GI50: 48 h, CyQUANT, read-out: Cell Growth Inibition GI50; for Emax: reduction of cells after 48 h at saturating dose, read-out: Cell Growth Inibition GImax
Source text: Given that REV-ERB target genes include several metabolic regulators, such as Pgc-1α and Nampt, it was decided to test the cell proliferation with a method that is independent from the metabolic state of the cell.
The CyQUANT® Cell Proliferation Assay Kit (Invitrogen) was used, an assay that has a linear detection range extending from 50 or fewer to at least 250,000 cells.
Frozen cells are simply thawed and lysed by addition of a buffer containing the CyQUANT®.
For the assay, tumorigenic breast cancer cells BT-474 cells were seeded at 2500 cells per well in a 96-well plate and incubated over-night at 37° C. Then, fresh medium containing different concentration of the compounds or vehicle (DMSO) was added and cells were growth 48 h at 37° C. Finally, cells were frozen at […] and then processed according to the manufacture instructions. A minimum of triplicate data for each dose was used for the analysis.
Data were collected and analyzed with Prism 5 software to calculate the growth inhibition curve.
In particular, values obtained from the DMSO treated cells was set at 100% of growth. Data from treatment of cells with serial dilutions of the compounds were normalized versus the DMSO group and fitted using a four-parameter dose-response curve.
GI50 was calculated as the concentration of compound that gives a response half way between bottom and top plateaus of the fitted curve.
The bottom plateaus of the fitted curve was used to calculate the Growth Inhibition max (GImax), defined as the percentage of the reduction of cells after 48 h upon a saturating dose of compound.
as §1
For the cell growth inhibition (GI) the growth inhibition 50 (GI50) and the growth inhibition max (GImax) are reported. […] The bottom plateaus of the curve was used to calculate the Growth Inhibition max (GImax), defined as the percentage of the reduction of cells after 48 h upon a saturating dose of the administered compound. Compounds with a GI50<100 μM were also tested for their antagonistic activity toward REV-ERB. For these compounds, the EC50 value is provided, calculated as the concentration of compound that gives a response half between the bottom (expression of the reporter in absence of compound) and the top (expression of the reporter at saturating doses of compound) plateaus of the fitted curves (see biological method section for a description of the reported assay). n.d.=not determined; n.t.=not tested.

SMILES	EC50 (REV-ERB) [µM]	GI50 [1] [µM]	Emax [1] [%]
Oc1ccc(CNC2(c3ccccc3F)CCCC2)cc1CN1CCCCC1 [Example 2, 4-[[[1-(2-Fluorophenyl)cyclopentyl]amino]methyl]-2-(1-piperidylmethyl)phenol dihydrochloride]	45	30	55
CN1CCN(Cc2cc(CNC3(c4ccccc4F)CCCCC3)ccc2O)CC1 [Example 3, 4-[[[1-(2-Fluorophenyl)cyclohexyl]amino]methyl]-2-[(4-methylpiperazin-1-yl)methyl]phenol trihydrochloride]	20	14	95
CN1CCN(Cc2cccc(CNC3(c4ccccc4F)CCCC3)c2)CC1 [Example 4, 1-(2-Fluorophenyl)-N-[[3-[(4-methylpiperazin-1-yl)methyl]phenyl]methyl]-cyclopentanamine trihydrochloride]	47	30	73
COc1ccc(CNC2(c3ccccc3F)CCCC2)cc1CN1CCN(C)CC1 [Example 5, 1-(2-Fluorophenyl)-N-[[4-methoxy-3-[(4-methylpiperazin-1-yl)methyl]-phenyl]methyl]cyclopentanamine trihydrochloride]	43	26	75
CN1CCN(Cc2cc(CNC3(c4ccccc4)CCCC3)ccc2O)CC1 [Example 7, 2-[(4-Methylpiperazin-1-yl)methyl]-4-[[(1-phenylcyclopentyl)amino]methyl]-phenol trihydrochloride]	24	18	70
Oc1ccc(CNC2(c3ccccc3F)CCCC2)cc1CN1CCN(c2ccccc2)CC1 [Example 9, 4-[[[1-(2-Fluorophenyl)cyclopentyl]amino]methyl]-2-[(4-phenylpiperazin-1-yl)methyl]phenol trihydrochloride]	50	30	50
CCN1CCN(Cc2cc(CNC3(c4ccccc4F)CCCC3)ccc2O)CC1 [Example 10, 2-[(4-Ethylpiperazin-1-yl)methyl]-4-[[[1-(2-fluorophenyl)cyclopentyl]amino]-methyl]phenol trihydrochloride]	25	15	70
Oc1ccc(CNC2(c3ccccc3F)CCCC2)cc1CN1CCNCC1 [Example 11, 4-[[[1-(2-Fluorophenyl)cyclopentyl]amino]methyl]-2-(piperazin-1-ylmethyl)-phenol]	40	24	70
Oc1ccc(CNC2(c3ccccc3F)CCCC2)cc1CN1CCN(Cc2ccccc2)CC1 [Example 12, 2-[(4-Benzylpiperazin-1-yl)methyl]-4-[[[1-(2-fluorophenyl)cyclopentyl]amino]-methyl]phenol trihydrochloride]	40	23	77
COc1ccccc1C1(NCc2ccc(O)c(CN3CCN(C)CC3)c2)CCCC1 [Example 14, 4-{[1-(2-Methoxy-phenyl)-cyclopentyl-amino]-methyl}-2-(4-methylpiperazin-1-ylmethyl)-phenol trihydrochloride]	23	19	82
CN1CCN(Cc2cc(CNC3(c4ccccc4F)CCC(F)(F)CC3)ccc2O)CC1 [Example 17, 4-[[[4,4-difluoro-1-(2-fluorophenyl)cyclohexyl]amino]methyl]-2-[(4-methyl-piperazin-1-yl)methyl]phenol trihydrochloride]	21	18	90
CN1CCC(Cc2cccc(CNC3(c4ccccc4F)CCCC3)c2)CC1 [Example 18, 1-(2-fluorophenyl)-N-[[3-[1-methyl-4-piperidyl)methyl]phenyl]methyl]cyclopentanamine dihydrochloride]	8	2	95
CN1CCC(Cc2cccc(CN(C)C3(c4ccccc4F)CCCC3)c2)CC1 [Example 19, 1-(2-fluorophenyl)-N-methyl-N-[[3-[(1-methyl-4-piperidyl)methyl]phenyl]methyl]cyclopentanamine dihydrochloride]	11	5	90
CN1CCN(Cc2cc(CNC3(c4ccccc4F)CCN(Cc4ccccc4)CC3)ccc2O)CC1 [Example 20, 4-[[[1-Benzyl-4-(2-fluorophenyl)-4-piperidyl]amino]methyl]-2-[(4-methylpiperazin-1-yl)methyl]phenol tetrahydrochloride]	12	11	92
Fc1ccccc1C1(NCc2cccc(CN3CCCCC3)c2)CCCC1 [Example 21, 1-(2-Fluorophenyl)-N-[[3-(1-piperidylmethyl)phenyl]methyl]cyclopentanamine dihydrochloride]	35	50	76
CN1CCN(Cc2cc(CNC3(c4cccc(F)c4)CCCC3)ccc2O)CC1 [Example 22, 4-[[[1-(3-Fluorophenyl)cyclopentyl]amino]methyl]-2-[(4-methylpiperazin-1-yl)methyl]phenol trihydrochloride]	15	14	80
CN1CCN(Cc2cc(CNC3(c4ccc(F)cc4)CCCC3)ccc2O)CC1 [Example 23, 4-[[[1-(4-Fluorophenyl)cyclopentyl]amino]methyl]-2-[(4-methylpiperazin-1-yl)methyl]phenol trihydrochloride]	10	10	90
CN1CCN(Cc2cc(CNC3(c4cccs4)CCCC3)ccc2O)CC1 [Example 25, 2-[(4-Methylpiperazin-1-yl)methyl]-4-[[[1-(2-thienyl)cyclopentyl]amino]methyl]phenol trihydrochloride]	29	18	70
COc1cccc(C2(NCc3ccc(O)c(CN4CCN(C)CC4)c3)CCCC2)c1 [Example 27, 4-[[[1-(3-Methoxyphenyl)cyclopentyl]amino]methyl]-2-[(4-methylpiperazin-1-yl)methyl]phenol trihydrochloride]	16	12	70
CN1CCC(Cc2cccc(CNC3(c4ccccc4F)CCOCC3)c2)CC1 [Example 30, 4-(2-Fluorophenyl)-N-[[3-[(1-methyl-4-piperidyl)methyl]phenyl]methyl]tetrahydropyran-4-amine dihydrochloride]	6	3	95
